Measured values reported in paper PMC8949503, “Radiosynthesis and Preclinical Evaluation of Bispecific PSMA/FAP Heterodimers for Tumor Imaging” (Pharmaceuticals, 2022).
Blank lines part the entries; values can stand above or below the molecule they belong to.

How the values were obtained:
[1] = n-octanol/PBS partition coefficient (logD); format: physicochemical; conditions: PBS pH 7.4, ambient temperature
Procedure: An aliquot (74 kBq) of [^18F]AlF-PSMA-FAPI-01 or [^18F]AlF-PSMA-FAPI-02 was added to a centrifuge tube containing a mixture of phosphate-buffered solution (PBS, pH 7.4, 5.0 mL) and n-octanol (5.0 mL). The mixture was vigorously vortexed at ambient temperature for 5 min and then centrifuged (10,000 rpm, 5 min). Three samples (each 100 µL) from each phase underwent radioactivity measurement using a γ-counter (CAPRAC-R, Capintec, Inc., Ramsey, NJ, USA).

A549-FAP cells [2] = assay: cell uptake and blocking study in A549-FAP cells; format: cell-based; conditions: for cell uptake, blocked: +DOTA-FAPI-04 (2.3 μM)
Procedure: PSMA-positive 22Rv1 cells (purchased from Institute of Biochemistry and Cell Biology, Shanghai, China) and stably FAP-transfected A549-FAP cells (acquired using lentiviral infection) were used for the cell-based experiments. The 22Rv1 cells were cultivated in RPMI-1640 medium (Gibco) at 37 °C/5% carbon dioxide, while the A549-FAP cells were cultivated in DMEM medium. Both media were supplemented with 10% heat-inactivated fetal bovine serum (FBS) and 1% penicillin/streptomycin (Gibco). Puromycin (1 µg/mL) was also added to the media to maintain FAP expression.
Cells were seeded in 12-well plates 2 days in advance to achieve a final confluence of approximately 80–90% (4–5 × 10^5 cells/well). The medium was displaced by 1 mL fresh medium without FBS. The method of cell studies was similar to a method reported previously. For the competitive binding experiments, cells were incubated with the known radiotracers ([^18F]FAPI-42 for the FAP receptor and [^18F]AlF-PSMA-BCH for PSMA) in the presence of 7 different concentrations (10^−5–10^−11 M) of the corresponding unlabeled heterodimers or corresponding monomer and incubated for 60 min at 37 °C. In all experiments, the cells were washed twice with PBS, lysed with 1 M NaOH, and counted using a γ-counter. IC50 values were calculated by fitting the data using a nonlinear regression algorithm (implemented in SPSS). For the radioligand binding studies, the cells were incubated for 5, 15, 30, 60, or 120 min at 37 °C after the addition of the heterodimer or corresponding monomeric radiotracer radiotracers. The blocking experiments were determined by adding the corresponding competitors (4.4 μM 2-PMPA for 22Rv1 cells and 2.3 μM DOTA-FAPI-04 for A549-FAP cells). Radioactivity was measured using a γ-counter, normalized to 1 million cells (1 mio cells), and calculated as the percentage of the applied dose (%ID/1 mio cells). For the internalization experiments, the cells were incubated with the radiolabeled compound for 60 min, washed twice with 1 mL PBS, and then incubated for 10 min with 1 mL glycine HCl (1 M, pH 2.2) to detach the extracellular bound tracer. Next, the cells were washed with PBS (2.0 mL) and lysed with 1 M NaOH (1.5 mL). The radioactivity of the acid wash solution (extracellularly bound tracer) and cell lysate (internalized tracer) was assessed separately using a γ-counter. For the efflux experiments, the radioactive medium was removed after 60 min incubation and replaced with non-radioactive medium. At predetermined time points of 15, 30, 60, and 120 min, the cells were washed with 1.0 mL PBS three times and then lysed. The radioactivity of the remaining cells was assessed using a γ-counter. Each experiment was conducted three times with three or four replicates per independent experiment.

[3] = tested on: 22Rv1 tumor-bearing nude mice; assay: tissue biodistribution and blocking in 22Rv1 tumor-bearing nude mice; format: in vivo; conditions: 1 h p.i.; for 22Rv1 tumor* uptake, Blocked / Kidney* uptake, Blocked: co-injected 2-PMPA 3 mg/kg
Procedure: (§1) For the biodistribution and micro-PET imaging studies, male BALB/c nude mice (6–8 weeks) were subcutaneously inoculated with 1 × 10^7 22Rv1 or 5 × 10^6 A549-FAP cells in the right shoulder. Mice were imaged or used in the biodistribution studies when the tumor reached 5–10 mm in diameter.
(§2) Mice bearing 22Rv1 or A549-FAP (n = 4 in each group) tumors were euthanized 60 min after intravenous administration of each tracer (740–1480 KBq/mouse). In the blocking group, the same experiment was conducted by co-injecting 50 μg of 2-PMPA for mice bearing 22Rv1 tumors or 50 μg of DOTA-FAPI-04 for mice bearing A549-FAP tumors. The organs of interest and tumors were quickly dissected and weighed. Radioactivity was assessed using a γ-counter and calculated as the percentage injected dose per gram (%ID/g).

[4] = tested on: A549-FAP tumor xenografts; assay: dynamic micro-PET imaging in A549-FAP tumor xenografts; format: in vivo; conditions: A549-FAP tumor-bearing nude mice, up to 2 h p.i.
Procedure: as §1
Mice bearing xenografted 22Rv1 or A549FAP tumors (n = 3 per group) were anesthetized and placed in the prone position in a micro-PET scanner (Siemens, Erlangen, Germany). Dynamic PET/CT images were acquired 2 h post-injection (p.i.) with the radiotracer (5.55–11.1 MBq). The blocking experiments were performed by co-injecting 3 mg/kg of 2-PMPA for mice bearing 22Rv1 tumors or 3 mg/kg of DOTA-FAPI-04 for mice bearing A549-FAP tumors. The images were reconstructed using a three-dimensional ordered-subset expectation maximum algorithm and converted to %ID/g. Attenuation correction was performed using the unenhanced low-dose CT data. For data analysis, the regions of interest (ROIs) were manually drawn over the tumors and major organs on decay-corrected whole-body coronal images obtained using Inevon Research Workplace 4.1 software.

[5] = tested on: A549-FAP tumor-bearing nude mice; assay: tissue biodistribution and blocking in A549-FAP tumor-bearing nude mice; format: in vivo; conditions: 1 h p.i.; for A549-FAP tumor uptake, Blocked / Blood uptake, Blocked / Bone uptake, Blocked / Brain uptake, Blocked / Gall bladder uptake, Blocked / Heart uptake, Blocked / Kidney uptake, Blocked / Liver uptake, Blocked / Lung uptake, Blocked / Muscle uptake, Blocked / Small intestine uptake, Blocked / Spleen uptake, Blocked / Stomach uptake, Blocked: co-injected DOTA-FAPI-04 3 mg/kg
Procedure: as §1, §2

22Rv1 cells = assay: efflux in 22Rv1 cells; format: cell-based; conditions: 2 h incubation
Procedure: (§3) Cells were seeded in 12-well plates 2 days in advance to achieve a final confluence of approximately 80–90% (4–5 × 10^5 cells/well). The medium was displaced by 1 mL fresh medium without FBS. The method of cell studies was similar to a method reported previously. For the competitive binding experiments, cells were incubated with the known radiotracers ([^18F]FAPI-42 for the FAP receptor and [^18F]AlF-PSMA-BCH for PSMA) in the presence of 7 different concentrations (10^−5–10^−11 M) of the corresponding unlabeled heterodimers or corresponding monomer and incubated for 60 min at 37 °C. In all experiments, the cells were washed twice with PBS, lysed with 1 M NaOH, and counted using a γ-counter. IC50 values were calculated by fitting the data using a nonlinear regression algorithm (implemented in SPSS). […] The blocking experiments were determined by adding the corresponding competitors (4.4 μM 2-PMPA for 22Rv1 cells and 2.3 μM DOTA-FAPI-04 for A549-FAP cells). Radioactivity was measured using a γ-counter, normalized to 1 million cells (1 mio cells), and calculated as the percentage of the applied dose (%ID/1 mio cells). […] The radioactivity of the acid wash solution (extracellularly bound tracer) and cell lysate (internalized tracer) was assessed separately using a γ-counter. […] The radioactivity of the remaining cells was assessed using a γ-counter. […]

A549-FAP cells [6] = assay: efflux in A549-FAP cells; format: cell-based; conditions: 2 h incubation
Procedure: as §3

n-octanol/PBS distribution coefficient (logD) [1]: −2.74 ± 0.02 | 22Rv1 tumor* uptake [3]: 12.37 ± 0.40 %ID/g | Kidney* uptake [3]: 23.4 ± 9.22 %ID/g | 22Rv1 tumor* uptake, Blocked [3]: 5.03 ± 0.75 %ID/g | Kidney* uptake, Blocked [3]: 2.85 ± 0.38 %ID/g | A549-FAP tumor uptake [5]: 6.40 ± 0.32 %ID/g | Blood uptake [5]: 2.36 ± 0.60 %ID/g | Bone uptake [5]: 4.09 ± 0.76 %ID/g | Brain uptake [5]: 0.16 ± 0.03 %ID/g | Gall bladder uptake [5]: 2.02 ± 0.40 %ID/g | Heart uptake [5]: 1.56 ± 0.14 %ID/g | Kidney uptake [5]: 23.88 ± 3.01 %ID/g | Liver uptake [5]: 1.38 ± 0.11 %ID/g | Lung uptake [5]: 1.82 ± 0.18 %ID/g | Muscle uptake [5]: 2.18 ± 0.48 %ID/g | Small intestine uptake [5]: 1.23 ± 0.21 %ID/g | Spleen uptake [5]: 0.99 ± 0.17 %ID/g | Stomach uptake [5]: 1.03 ± 0.13 %ID/g | A549-FAP tumor uptake, Blocked [5]: 1.38 ± 0.77 %ID/g | Blood uptake, Blocked [5]: 0.88 ± 0.62 %ID/g | Bone uptake, Blocked [5]: 1.53 ± 0.21 %ID/g | Brain uptake, Blocked [5]: 0.09 ± 0.03 %ID/g | Gall bladder uptake, Blocked [5]: 1.67 ± 0.32 %ID/g | Heart uptake, Blocked [5]: 0.41 ± 0.02 %ID/g | Kidney uptake, Blocked [5]: 28.65 ± 6.05 %ID/g | Liver uptake, Blocked [5]: 0.79 ± 0.37 %ID/g | Lung uptake, Blocked [5]: 1.66 ± 0.33 %ID/g | Muscle uptake, Blocked [5]: 0.32 ± 0.05 %ID/g | Small intestine uptake, Blocked [5]: 1.04 ± 0.53 %ID/g | Spleen uptake, Blocked [5]: 0.67 ± 0.20 %ID/g | Stomach uptake, Blocked [5]: 0.91 ± 0.43 %ID/g
SMILES: N#C[C@@H]1CC(F)(F)CN1C(=O)CNC(=O)c1ccnc2ccc(OCCCC(=O)NCCCC[C@H](NC(=O)CN3CCN4CCN(CC3)CC(=O)[O][Al]([18F])[O]C(=O)C4)C(=O)NCC3CCC(C(=O)N[C@H](Cc4ccc5ccccc5c4)C(=O)NCCCC[C@H](NC(=O)N[C@@H](CCC(=O)O)C(=O)O)C(=O)O)CC3)cc12 (some centres unmarked) [[^18F]AlF-PSMA-FAPI-01]
cell uptake (A549-FAP cells [2]; 5 min): 8.15 ± 0.31 % ID/1 million cells | cell uptake, blocked (A549-FAP cells [2]; 5 min): 0.67 ± 0.07 % ID/1 million cells | cell uptake (A549-FAP cells [2]; 15 min): 16.57 ± 0.98 % ID/1 million cells | cell uptake, blocked (A549-FAP cells [2]; 15 min): 0.71 ± 0.09 % ID/1 million cells | cell uptake (A549-FAP cells [2]; 30 min): 23.73 ± 0.33 % ID/1 million cells | cell uptake, blocked (A549-FAP cells [2]; 30 min): 0.77 ± 0.01 % ID/1 million cells | cell uptake (A549-FAP cells [2]; 60 min): 30.36 ± 3.53 % ID/1 million cells | cell uptake, blocked (A549-FAP cells [2]; 60 min): 0.83 ± 0.09 % ID/1 million cells | cell uptake (A549-FAP cells [2]; 120 min): 28.23 ± 2.97 % ID/1 million cells | cell uptake, blocked (A549-FAP cells [2]; 120 min): 1.16 ± 0.06 % ID/1 million cells | time–activity curves (micro-PET) [4]: rapid uptake and excellent retention in tumors, as well as rapid clearance from non-target organs via the kidneys

n-octanol/PBS distribution coefficient (logD) [1]: −2.04 ± 0.04 | 22Rv1 tumor* uptake [3]: 12.85 ± 2.43 %ID/g | Kidney* uptake [3]: 27.0 ± 11.9 %ID/g | 22Rv1 tumor* uptake, Blocked [3]: 6.85 ± 1.53 %ID/g | Kidney* uptake, Blocked [3]: 2.94 ± 0.35 %ID/g | A549-FAP tumor uptake [5]: 6.47 ± 0.76 %ID/g | Blood uptake [5]: 1.98 ± 0.46 %ID/g | Bone uptake [5]: 5.53 ± 0.18 %ID/g | Brain uptake [5]: 0.11 ± 0.03 %ID/g | Gall bladder uptake [5]: 2.23 ± 1.07 %ID/g | Heart uptake [5]: 0.84 ± 0.17 %ID/g | Kidney uptake [5]: 23.10 ± 7.91 %ID/g | Liver uptake [5]: 0.81 ± 0.22 %ID/g | Lung uptake [5]: 1.37 ± 0.22 %ID/g | Muscle uptake [5]: 1.35 ± 0.36 %ID/g | Small intestine uptake [5]: 0.84 ± 0.33 %ID/g | Spleen uptake [5]: 0.51 ± 0.16 %ID/g | Stomach uptake [5]: 0.83 ± 0.42 %ID/g | A549-FAP tumor uptake, Blocked [5]: 1.11 ± 0.88 %ID/g | Blood uptake, Blocked [5]: 0.57 ± 0.19 %ID/g | Bone uptake, Blocked [5]: 3.83 ± 0.02 %ID/g | Brain uptake, Blocked [5]: 0.07 ± 0.03 %ID/g | Gall bladder uptake, Blocked [5]: 1.39 ± 0.20 %ID/g | Heart uptake, Blocked [5]: 0.28 ± 0.07 %ID/g | Kidney uptake, Blocked [5]: 26.70 ± 10.80 %ID/g | Liver uptake, Blocked [5]: 0.41 ± 0.12 %ID/g | Lung uptake, Blocked [5]: 0.90 ± 0.24 %ID/g | Muscle uptake, Blocked [5]: 0.85 ± 0.39 %ID/g | Small intestine uptake, Blocked [5]: 0.55 ± 0.29 %ID/g | Spleen uptake, Blocked [5]: 0.30 ± 0.03 %ID/g | Stomach uptake, Blocked [5]: 0.37 ± 0.06 %ID/g
SMILES: N#C[C@@H]1CC(F)(F)CN1C(=O)CNC(=O)c1ccnc2ccc(OCCCN3CCN(C(=O)CCC(=O)NCCCC[C@H](NC(=O)CN4CCN5CCN(CC4)CC(=O)[O][Al]([18F])[O]C(=O)C5)C(=O)NC[C@H]4CC[C@H](C(=O)N[C@H](Cc5ccc6ccccc6c5)C(=O)NCCCC[C@H](NC(=O)N[C@@H](CCC(=O)O)C(=O)O)C(=O)O)CC4)CC3)cc12 [[^18F]AlF-PSMA-FAPI-02]
cell uptake (A549-FAP cells [2]; 5 min): 11.66 ± 0.39 % ID/1 million cells | cell uptake, blocked (A549-FAP cells [2]; 5 min): 1.28 ± 0.08 % ID/1 million cells | cell uptake (A549-FAP cells [2]; 15 min): 17.03 ± 0.85 % ID/1 million cells | cell uptake, blocked (A549-FAP cells [2]; 15 min): 1.29 ± 0.38 % ID/1 million cells | cell uptake (A549-FAP cells [2]; 30 min): 23.26 ± 1.59 % ID/1 million cells | cell uptake, blocked (A549-FAP cells [2]; 30 min): 1.31 ± 0.16 % ID/1 million cells | cell uptake (A549-FAP cells [2]; 60 min): 27.02 ± 2.21 % ID/1 million cells | cell uptake, blocked (A549-FAP cells [2]; 60 min): 1.59 ± 0.65 % ID/1 million cells | cell uptake (A549-FAP cells [2]; 120 min): 32.55 ± 1.42 % ID/1 million cells | cell uptake, blocked (A549-FAP cells [2]; 120 min): 1.71 ± 0.23 % ID/1 million cells | cell efflux (22Rv1 cells): lower cellular efflux | time–activity curves (micro-PET) [4]: rapid uptake and excellent retention in tumors, as well as rapid clearance from non-target organs via the kidneys | cell efflux (A549-FAP cells [6]): lower cellular efflux
